The structures appear in SMILES notation.

The target in one assay is T1, human H4 receptor (Homo sapiens, UniProt Q9H3N8).
T1 construct: expressed in transfected cells; host or cells: HEKf cells infected with baculovirus
As to the kind of experiment: H4 Antagonist Functional Dynamic Mass Redistribution Assay. In kind it is cell-based. The settings on record: HEKf cells expressing human H4 receptor; antagonist mode vs histamine EC80; pKb by Cheng-Prusoff; read-out: Human H4 DMR fpKb (converted). Here is the method: H4 Antagonist Functional Dynamic Mass Redistribution Assay
HEKf cells were infected using baculovirus expressing the human H4 receptor, plated into fibronectin-coated EPIC plates at a density of 10,000 cells/well and incubated overnight at 37° C. The medium on cells was changed to […] HBSS with 20 mM HEPES per well and 30 nL DMSO were added per well by LabCyte ECHO acoustic dispensing. Following 2 h equilibration at room temperature, 30 nL of H4 ligands prepared in DMSO were stamped by LabCyte ECHO acoustic dispensing into seeded EPIC plates and cellular dynamic mass redistribution was monitored using a Corning EPIC plate reader. Following 45 min measurement, 30 nL/well of histamine EC80 was added and monitored to obtain antagonist assay data. Maximum baseline-corrected responses in pm were used to generate concentration response curves. EC50 values were generated using a 4-parameter logistical fit equation to quantify agonist potencies. Functional antagonist affinity values were generated using the Cheng-Prusoff equation to calculate a pKb value using the antagonist assay data.

A further assay addresses hERG (Homo sapiens, UniProt Q12809). The assay is described as follows: hERG assay (QPatch automated patch clamp, CHO cells). Format: cell-based. The following applies: CHO cells stably expressing hERG; 1, 3, 10 and 30 μM; tail current; room temperature; read-out: hERG pIC50 (converted). Here is the method: All experiments were performed on the QPatch automated patch clamp platform.
Series resistance (4-15 MΩ) was compensated by >80%.

T1 sequence (Q9H3N8 whole entry): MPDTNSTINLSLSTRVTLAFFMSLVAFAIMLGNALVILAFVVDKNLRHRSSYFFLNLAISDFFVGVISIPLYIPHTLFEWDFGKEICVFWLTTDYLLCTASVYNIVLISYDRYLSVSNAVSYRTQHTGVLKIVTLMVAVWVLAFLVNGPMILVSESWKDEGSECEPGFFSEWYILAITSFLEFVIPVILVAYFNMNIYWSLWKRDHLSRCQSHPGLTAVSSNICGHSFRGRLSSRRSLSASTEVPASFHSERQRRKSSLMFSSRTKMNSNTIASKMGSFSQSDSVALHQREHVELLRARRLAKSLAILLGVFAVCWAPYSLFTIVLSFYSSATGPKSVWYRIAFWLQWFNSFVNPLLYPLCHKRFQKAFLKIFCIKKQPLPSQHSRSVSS
Chain of hERG (Q12809 whole entry): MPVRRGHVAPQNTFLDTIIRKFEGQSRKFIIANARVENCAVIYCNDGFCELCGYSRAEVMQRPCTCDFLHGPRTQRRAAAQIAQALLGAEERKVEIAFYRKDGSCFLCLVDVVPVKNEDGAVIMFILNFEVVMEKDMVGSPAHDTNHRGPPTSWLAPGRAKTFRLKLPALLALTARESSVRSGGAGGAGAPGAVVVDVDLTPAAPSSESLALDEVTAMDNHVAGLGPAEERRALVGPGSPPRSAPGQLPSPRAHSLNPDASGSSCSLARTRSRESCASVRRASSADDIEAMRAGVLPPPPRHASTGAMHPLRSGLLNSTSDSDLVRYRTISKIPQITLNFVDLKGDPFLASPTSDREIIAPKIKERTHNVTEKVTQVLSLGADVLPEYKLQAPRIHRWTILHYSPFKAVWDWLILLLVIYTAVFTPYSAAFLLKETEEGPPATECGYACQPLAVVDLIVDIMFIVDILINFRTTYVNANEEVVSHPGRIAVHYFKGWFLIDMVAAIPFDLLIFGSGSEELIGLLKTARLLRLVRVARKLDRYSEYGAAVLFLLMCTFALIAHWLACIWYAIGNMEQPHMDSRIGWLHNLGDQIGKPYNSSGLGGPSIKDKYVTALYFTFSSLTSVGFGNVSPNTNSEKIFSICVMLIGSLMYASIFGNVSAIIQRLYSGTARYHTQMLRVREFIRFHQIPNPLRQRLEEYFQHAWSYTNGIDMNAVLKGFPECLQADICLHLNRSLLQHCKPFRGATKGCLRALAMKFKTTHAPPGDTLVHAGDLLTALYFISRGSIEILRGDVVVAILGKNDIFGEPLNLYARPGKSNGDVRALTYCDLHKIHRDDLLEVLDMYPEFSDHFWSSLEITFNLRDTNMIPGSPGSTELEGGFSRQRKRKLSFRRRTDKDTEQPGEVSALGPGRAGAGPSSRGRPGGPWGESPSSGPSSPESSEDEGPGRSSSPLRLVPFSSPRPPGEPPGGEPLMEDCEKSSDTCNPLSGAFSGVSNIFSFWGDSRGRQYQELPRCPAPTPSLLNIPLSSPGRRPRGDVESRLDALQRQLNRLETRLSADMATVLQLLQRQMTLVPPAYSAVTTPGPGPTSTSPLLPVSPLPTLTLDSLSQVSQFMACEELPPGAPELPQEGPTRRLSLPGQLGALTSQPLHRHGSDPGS

For `CNC1CN(c2cc(-c3cc(C)[nH]n3)nc(N)n2)C1` [Example 35, 4-(5-Methyl-1H-pyrazol-3-yl)-6-(3-(methylamino)azetidin-1-yl)pyrimidin-2-amine], at human H4 receptor, the Kb was 3.98 nM. On hERG, the IC50 was over 31600 nM.
As to `CNC1CN(c2cc(-c3cnn(CC(F)(F)F)c3)nc(N)n2)C1` [Example 2, 4-(3-(Methylamino)azetidin-1-yl)-6-(1-(2,2,2-trifluoroethyl)-1H-pyrazol-4-yl)pyrimidin-2-amine], the Kb at human H4 receptor was 15.8 nM. Besides, the IC50 at hERG is over 100000 nM.
On to `CNC1CN(c2cc(-c3cnn(CC(F)(F)F)c3C)nc(N)n2)C1` [Example 12, 4-(5-Methyl-1-(2,2,2-trifluoroethyl)-1H-pyrazol-4-yl)-6-(3-(methylamino)azetidin-1-yl)pyrimidin-2-amine], for which the Kb at human H4 receptor was 7.94 nM. Further, the IC50 on hERG is 38900 nM.
In the case of `Cc1cc(C)c2nc(-c3cnc(NCCCC4CCN(C)CC4)nc3C)[nH]c2c1` [Toreforant, reference compound], at human H4 receptor, the Kb is 12.6 nM. In addition, the IC50 on hERG is 3160 nM.
For `CN[C@@H]1CCN(c2cc(NCC3CC3)nc(N)n2)C1` [PF-3893787, reference compound] the same measures were 0.794 nM and 7940 nM.
For `CCn1ncc(-c2cc(N3CC(NC)C3)nc(N)n2)c1C` [Example 21, 4-(1-Ethyl-5-methyl-1H-pyrazol-4-yl)-6-(3-(methylamino)azetidin-1-yl)pyrimidin-2-amine] the same measures were 2.51 nM and over 100000 nM.
`CCn1cc(-c2cc(N3CC(NC)C3)nc(N)n2)cn1` [Example 3, 4-(1-Ethyl-1H-pyrazol-4-yl)-6-(3-(methylamino)azetidin-1-yl)pyrimidin-2-amine]: at human H4 receptor, the Kb was 3.98 nM. For the same molecule, the IC50 on hERG was over 100000 nM.
